Results as given in patent publication US20160346291A1, “COMPOSITIONS AND THERAPEUTIC METHODS FOR ACCELERATED PLAQUE REGRESSION” (Resverlogix Corp, priority 2013, published 2016).

Test system: ApoA-I mRNA
Assay: ApoA-I mRNA quantitation in HepG2 cells (real-time PCR)
Format: cell-based
Design: key: Active: An active compound is one that causes a >15% increase in ApoA-I mRNA at a concentration less than or equal to 100 uM
Conditions: concentration less than or equal to 100 uM, fold induction relative to DMSO control
Protocol: At time of harvesting, the spent media was removed from the HepG2 cells and immediately placed on ice (for immediate use) or at −80° C. (for future use) in ApoA-I and albumin ELISAs. The cells remaining in the plate wells were rinsed in 200 μL PBS. PBS was carefully removed to avoid removing any loosely attached cells.
Once the PBS was removed, 85 μL cell lysis solution was added to the cells in each well and incubated for 5-10 min at room temperature, to allow for complete cell lysis and detachment. mRNA was then prepared using the “mRNA Catcher PLUS plate” from Invitrogen, according to the protocol supplied. After the last wash, as much wash buffer as possible was aspirated without allowing the wells to dry. Elution Buffer (E3, 80 μL) was then added to each well. mRNA was then eluted by incubating the mRNA Catcher PLUS plate with Elution Buffer for 5 min at 68° C. and then immediately placing the plate on ice.
The eluted mRNA was isolated and then used in a one-step real-time […]-PCR reaction, using components of the Ultra Sense Kit together with Applied Biosystems primer-probe mixes. Real-time PCR data was analyzed, using the Ct values, to determine the fold induction of each unknown sample, relative to the control (that is, relative to the control for each independent DMSO concentration).
The following compounds of Formula I were evaluated in this assay. An active compound is one that causes a >15% increase in ApoA-I mRNA at a concentration less than or equal to 100 uM.

Compound | Effect on ApoA-I mRNA levels
Cl.Cl.Cl.Cl.N=C(N)NCCCC(N)C(=O)Oc1ccc(-c2cc3ccccc3cn2)cc1 (stereo not drawn) [4-(Isoquinolin-3-yl)phenyl 2-amino-5-guanidinopentanoate tetrahydrochloride] | Active
Oc1ccc(-c2cc3ccccc3cn2)cc1 [4-Isoquinolin-3-yl-phenol] | Active
COc1cc(OC)c2c(=O)[nH]c(-c3cc(C)c(OCCNS(=O)(=O)c4ccc(Cl)cc4)c(C)c3)nc2c1 [4-chloro-N-(2-(4-(5,7-dimethoxy-4-oxo-3,4-dihydroquinazolin-2-yl)-2,6-dimethylphenoxy)ethyl)benzenesulfonamide] | Active
Cc1cc(-c2nc3cc(Cl)cc(Cl)c3c(=O)[nH]2)cc(C)c1OCCO [5,7-dichloro-2-(4-(2-hydroxyethoxy)-3,5-dimethylphenyl)quinazolin-4(3H)-one] | Active
COc1cc(OC)c2c(=O)[nH]c(-c3cccc([N+](=O)[O-])c3)nc2c1 [5,7-dimethoxy-2-(3-nitrophenyl)quinazolin-4(3H)-one] | Inactive
COCCOc1c(C)cc(-c2nc3cc(OC)cc(OC)c3c(=O)[nH]2)cc1C [5,7-dimethoxy-2-(4-(2-methoxyethoxy)-3,5-dimethylphenyl)quinazolin-4(3H)-one] | Active
COc1cc(OC)c2c(=O)[nH]c(-c3ccc(N4CCN(C)CC4)cc3)nc2c1 [5,7-dimethoxy-2-(4-(4-methylpiperazin-1-yl)phenyl)quinazolin-4(3H)-one] | Active
COc1cc(OC)c2c(=O)[nH]c(-c3ccc(CN4CCN(C)CC4)cc3)nc2c1 [5,7-dimethoxy-2-(4-((4-methylpiperazin-1-yl)methyl)phenyl)quinazolin-4(3H)-one] | Active
COc1cc(OC)c2c(=O)[nH]c(-c3ccc(CN4CCOCC4)cc3)nc2c1 [5,7-dimethoxy-2-(4-(morpholinomethyl)phenyl)quinazolin-4(3H)-one] | Active
COc1cc(OC)c2c(=O)[nH]c(-c3cc(C)c(OC)c(C)c3)nc2c1 [5,7-dimethoxy-2-(4-methoxy-3,5-dimethylphenyl)quinazolin-4(3H)-one] | Active
COc1cc(OC)c2c(=O)[nH]c(-c3ccc(OC)c(CN4CCOCC4)c3)nc2c1 [5,7-dimethoxy-2-(4-methoxy-3-(morpholinomethyl)phenyl)quinazolin-4(3H)-one] | Active
COc1ccc(-c2nc3cc(OC)cc(OC)c3c(=O)[nH]2)cc1 [5,7-dimethoxy-2-(4-methoxyphenyl)quinazolin-4(3H)-one] | Active
COc1cc(OC)c2c(=O)[nH]c(-c3ccc(N4CCOCC4)cc3)nc2c1 [5,7-dimethoxy-2-(4-morpholinophenyl)quinazolin-4(3H)-one] | Active
COc1cc(OC)c2c(=O)[nH]c(-c3cccc(-c4ccc(S(C)(=O)=O)cc4)n3)nc2c1 [5,7-dimethoxy-2-(6-(4-(methylsulfonyl)phenyl)pyridin-2-yl)quinazolin-4(3H)-one] | Active
COc1cc(OC)c2c(=O)[nH]c(-c3cccc(-c4ccc(SC)cc4)n3)nc2c1 [5,7-dimethoxy-2-(6-(4-(methylthio)phenyl)pyridin-2-yl)quinazolin-4(3H)-one] | Active
COc1cc(OC)c2c(=O)[nH]c(-c3cccc(C)n3)nc2c1 [5,7-dimethoxy-2-(6-methylpyridin-2-yl)quinazolin-4(3H)-one] | Active
COc1cc(OC)c2c(=O)[nH]c(-c3ccccn3)nc2c1 [5,7-dimethoxy-2-(pyridin-2-yl)quinazolin-4(3H)-one] | Active
COc1cc(OC)c2c(=O)[nH]c(-c3ccncc3)nc2c1 [5,7-dimethoxy-2-(pyridin-4-yl)quinazolin-4(3H)-one] | Active
COc1cc(OC)c2c(=O)[nH]c(-c3ccccc3C)nc2c1 [5,7-dimethoxy-2-o-tolylquinazolin-4(3H)-one] | Active
COc1cc(OC)c2c(=O)[nH]c(-c3ccc(C)cc3)nc2c1 [5,7-dimethoxy-2-p-tolylquinazolin-4(3H)-one] | Inactive

Compound | Effect on ApoA-I mRNA levels
COc1cc(O)c2c(=O)[nH]c(-c3cc(C)c(O)c(C)c3)nc2c1 [5-hydroxy-2-(4-hydroxy-3,5-dimethylphenyl)-7-methoxyquinazolin-4(3H)-one] | Active
COc1cc2c(c(OC)c1)S(=O)(=O)NC(c1cc(C)c(O)c(C)c1)=C2 [6,8-dimethoxy-3-(4-hydroxy-3,5-dimethylphenyl)-2H-1,2-benzothiazine-1,1-dioxide] | Active
Cc1cc(-c2nc3ccc(Br)cc3c(=O)[nH]2)cc(C)c1OCCO[Si](C)(C)C(C)(C)C [6-bromo-2-(4-(2-(tert-butyldimethylsilyloxy)ethoxy)-3,5-dimethylphenyl)quinazolin-4(3H)-one] | Active
Cc1cc(-c2nc3ccc(Br)cc3c(=O)[nH]2)cc(C)c1OCCO [6-bromo-2-(4-(2-hydroxyethoxy)-3,5-dimethylphenyl)quinazolin-4(3H)-one] | Active
Cc1cc(-c2nc3ccc(Br)cc3c(=O)[nH]2)cc(C)c1O [6-bromo-2-(4-hydroxy-3,5-dimethylphenyl)quinazolin-4(3H)-one] | Active
COc1cc(OC)c2c(=O)[nH]c(-c3cc(C)c(OCCN4CCOCC4)c(C)c3)cc2n1 [7-(3,5-dimethyl-4-(2-morpholinoethoxy)phenyl)-2,4-dimethoxy-1,6-naphthyridin-5(6H)-one] | Active
COc1cc(OC)c2c(=O)[nH]c(-c3cc(C)c(OCCO)c(C)c3)cc2n1 [7-(4-(2-hydroxyethoxy)-3,5-dimethylphenyl)-2,4-dimethoxy-1,6-naphthyridin-5(6H)-one] | Active
Cc1cc(-c2cc3ncccc3c(=O)[nH]2)cc(C)c1O [7-(4-hydroxy-3,5-dimethylphenyl)-1,6-naphthyridin-5(6H)-one] | Active
Cc1cc(-c2cc3nc(OC(C)C)cc(OC(C)C)c3c(=O)[nH]2)cc(C)c1O [7-(4-hydroxy-3,5-dimethylphenyl)-2,4-diisopropoxy-1,6-naphthyridin-5(6H)-one] | Active
COc1cc(OC)c2c(=O)[nH]c(-c3cc(C)c(O)c(C)c3)cc2n1 [7-(4-hydroxy-3,5-dimethylphenyl)-2,4-dimethoxy-1,6-naphthyridin-5(6H)-one] | Active
COc1cc(OC)c2c(=O)[nH]c(-c3cc(C)c(/N=C/N(C)C)c(C)c3)nc2c1 [(E)-N′-(4-(5,7-dimethoxy-4-oxo-3,4-dihydroquinazolin-2-yl)-2,6-dimethylphenyl)-N,N-dimethylformimidamide] | Active
CNC(=O)c1ccccc1C(=O)NCCOc1c(C)cc(-c2nc3cc(OC)cc(OC)c3c(=O)[nH]2)cc1C [N1-(2-(4-(5,7-dimethoxy-4-oxo-3,4-dihydroquinazolin-2-yl)-2,6-dimethylphenoxy)ethyl)-N2-methylphthalamide] | Active
CC(=O)Nc1ccc2nc(-c3cc(C)c(OCCO)c(C)c3)[nH]c(=O)c2c1 [N-(2-(4-(2-hydroxyethoxy)-3,5-dimethylphenyl)-4-oxo-3,4-dihydroquinazolin-6-yl)acetamide] | Active
COc1cc(OC)c2c(=O)[nH]c(-c3cc(C)c(OCCNC(=O)c4ccc(C)cc4)c(C)c3)nc2c1 [N-(2-(4-(5,7-Dimethoxy-4-oxo-3,4-dihydroquinazolin-2-yl)-2,6-dimethylphenoxy)ethyl)-4-methylbenzamide] | Active
COc1ccc(C(=O)NCCOc2c(C)cc(-c3nc4cc(OC)cc(OC)c4c(=O)[nH]3)cc2C)cc1 [N-(2-(4-(5,7-dimethoxy-4-oxo-3,4-dihydroquinazolin-2-yl)-2,6-dimethylphenoxy)ethyl)-4-methoxybenzamide] | Active
COc1ccc(S(=O)(=O)NCCOc2c(C)cc(-c3nc4cc(OC)cc(OC)c4c(=O)[nH]3)cc2C)cc1 [N-(2-(4-(5,7-dimethoxy-4-oxo-3,4-dihydroquinazolin-2-yl)-2,6-dimethylphenoxy)ethyl)-4-methoxybenzenesulfonamide] | Active
COc1cc(OC)c2c(=O)[nH]c(-c3cc(C)c(OCCNS(=O)(=O)c4ccc(C)cc4)c(C)c3)nc2c1 [N-(2-(4-(5,7-dimethoxy-4-oxo-3,4-dihydroquinazolin-2-yl)-2,6-dimethylphenoxy)ethyl)-4-methylbenzenesulfonamide] | Active
COc1cc(OC)c2c(=O)[nH]c(-c3cc(C)c(OCCNC(C)=O)c(C)c3)nc2c1 [N-(2-(4-(5,7-dimethoxy-4-oxo-3,4-dihydroquinazolin-2-yl)-2,6-dimethylphenoxy)ethyl)acetamide] | Active
COc1cc(OC)c2c(=O)[nH]c(-c3cc(C)c(OCCNC(=O)c4ccccc4)c(C)c3)nc2c1 [N-(2-(4-(5,7-dimethoxy-4-oxo-3,4-dihydroquinazolin-2-yl)-2,6-dimethylphenoxy)ethyl)benzamide] | Active
